{"source": "patent US20040171795A1", "about": "“Novel peptides” (priority 2000, published 2004)", "key": {"[1]": {"test": "Evaluation of toxicity of the peptide, tail vein administration", "assay_type": "in vivo", "settings": "female BALB/c mouse, 5 mg/kg", "method": "The peptide of the present invention was administered to a mouse from its tail vein to thereby evaluate its toxicity. The mouse used was a female BALB/c mouse of 5 week old, and the peptide was used at a dose of 5 mg/kg."}, "[2]": {"test": "Measurement of CD spectrum", "assay_type": "physicochemical", "method": "The peptide dissolved in 10 mM phosphate buffer (pH=7) containing 50 mM NaCl was evaluated for its CD spectrum in the presence and in the absence of 5 mM SDS by using a circular dichroism spectrophotometer (J-500A, manufactured by JASCO). The cell length was 1 mm. The measurement was conducted at 35° C. for 6 times in total. FIGS. 7 to 9 are respectively views showing mean residue ellipticity in CD spectroscopy of the peptide of SEQ ID NO:1, the peptide of SEQ ID NO:4 and the peptide of SEQ ID NO:16. As evident in FIGS. 7 to 9, the mean residue ellipticity obtained in the presence of SDS was the so called W curve and local minimums were found in the areas at the wavelength of 205 to 210 nm and 220 to 225 nm, and α-helix structure was thereby confirmed."}, "[3]": {"tested_on": "cell (Vero, T24 or A549 of Example 9; not given)", "test": "Nucleic acid-introducing ability, luciferase-expressing plasmid (procedure of Example 9)", "assay_type": "cell-based", "source_text": "A cell line established from monkey kidney (Vero cell) and a human bladder cancer cell (T24 cell) purchased from American Type Culture Collection (ATCC) and human lung cancer cell (A549 cell) purchased from Dainippon Pharmaceutical were inoculated on a 24 well culture plate (manufactured by NALGEN NUNC) at 1×10^5 cells/well. Vero cell and A549 cell were cultivated in DMEM (manufactured by Life Technologies Oriental) supplemented with 10% fetal bovine serum (hereinafter referred to as FBS, manufactured by NICHIREI), and T24 cell was cultivated in McCoy's 5a (manufactured by Life Technologies Oriental) supplemented with 10% FBS in 5% CO2 atmosphere at 37° C. for 24 hours. After removing the medium, opti-MEM (manufactured by Life Technologies Oriental) prepared to have the concentration of the luciferase-expressing plasmid prepared in Example 7 of 1 μg/mL and the concentration of the peptide prepared in Example 1 of 1.25, 2.5, or 5 μM was added, and the cells were cultivated for 5 hours. Next, in the case of Vero cell and A549 cell, the culture medium was replaced with DMEM supplemented with 10% FBS, and in the case of T24 cell, the medium was replaced with McCoy's 5a supplemented with 10% FBS, and cultivation was continued in 5% CO2 atmosphere and at 37° C. for another 24 hours. The luciferase activity expressed in the cell was then measured by the method instructed in luciferase assay system (manufactured by Promega). To be more specific, the cells were washed with phosphate-buffered saline (hereinafter referred to as PBS, manufactured by SIGMA), and the cells were lyzed with Passive Lysis Buffer attached to the kit. 20 μL of this cell lysate and 100 μL of the Luciferase Assay Reagent II attached to the kit was added to a fluorescence-measuring plate (Microlite™ 1 plate, manufactured by Dynatech), and after mixing, fluorescence was measured for 1 second by using a multilabel counter (ARVO™ SY1420 MULTILABEL COUNTER, manufactured by Wallac Beltold.\nConcentration of the protein in the cell lysate was measured by mixing 8 μL of the cell lysate and 200 μL of the protein assay solution (manufactured by Biorad) with 792 μL of ultrapure water in a disposable cuvette (UV fluorescent cuvette A204X, manufactured by Funakoshi), allowing the mixture to stand for 5 minutes at room temperature, and measuring the absorption at 595 nm with a spectrophotometer (DU640, manufactured by Beckman). Bovine serum albumin (BSA) was used for the standard protein. By using the thus obtained results, count per 1 second per 1 mg of protein of the cell lysate was calculated to thereby use the count as the luciferase activity, and the highest count in the three conditions of different peptide concentration was designated the gene-introducing ability of the peptide.\nIt is to be noted that the nucleic acid-introducing ability was classified as described below on the bases of the fluorescent count per 1 mg of protein per 1 second (cps/mg protein)."}, "[4]": {"tested_on": "Vero cell", "test": "Storage stability of the complex with nucleic acid (luciferase activity)", "assay_type": "cell-based, monkey", "settings": "luciferase-expressing plasmid 2 μg/mL, peptide 5 μM; reagents per attached protocol", "method": "Luciferase-expressing plasmid was introduced in Vero cell in accordance with the procedure described in Example 9 by using the opti-MEM prepared to have a concentration of the luciferase-expressing plasmid prepared in Example 7 of 2 μg/mL and a concentration of the peptide of SEQ ID NO:4 prepared in Example 1 of 5 μM to thereby measure the luciferase activity. The opti-MEM containing plasmid and peptide used were the one which had been prepared immediately before the gene introduction, and the one which had been prepared 1 week (7 days) in advance and stored at 4° C.\nFor the purpose of reference, gene-introducing activity of Lipofectin and LipofectAMINE 2000 (manufactured by Life Technologies Oriental), which are commercially available plasmid-introducing agents, were also evaluated by mixing these reagent with luciferase-expressing plasmid in accordance with the attached protocol, and evaluating their gene-introducing activity after storing at 4° C. for 1 week."}, "[5]": {"test": "Affinity by surface plasmon resonance (Biacore 2000), flow cell 1", "assay_type": "binding", "settings": "SPR, HPA chip, 0.1 mg/mL BSA", "method": "(§1) The specific affinity of the peptide for phosphatidyl serine was evaluated by means of surface plasmon resonance (SPR) using Biacore 2000 (manufactured by Biacore). To be more specific, phosphatidyl choline was immobilized on flow cell 1, and 50% of phosphatidyl serine and 50% of phosphatidyl choline were immobilized on flow cell 2 of HPA chip (manufactured by Biacore), and ability of the peptide to bind to the phospholipid was evaluated in the presence of 0.1 mg/mL BSA to thereby evaluate the affinity."}, "[6]": {"test": "Affinity by surface plasmon resonance (Biacore 2000), flow cell 2", "assay_type": "binding", "settings": "SPR, HPA chip, 0.1 mg/mL BSA; compared with flow cell 1", "method": "as §1"}}, "note": "Where no end group is shown, it is not given here.", "data": [{"substance": "LARLLARLLARLLRALLRALLRAL [SEQ ID NO:27]", "values": [{"measurement": "toxicity after tail vein administration", "setting": "[1]", "result": "died immediately after the administration"}]}, {"substance": "SEQ ID NO: 4: peptide of SEQ ID NO:1 with one or two locations substituted in the 18 amino acid sequence (TRYLRIHPRSWLHQIALRLRYLRIHPRSWLHQIALRS; synthetic peptide using an automatic peptide synthesizer)", "values": [{"measurement": "α-helix structure in CD spectrum in the absence of SDS", "setting": "[2]; aqueous solution solely containing an inorganic salt, pH 7, 35° C.", "result": "do not take α-helix structure"}, {"measurement": "Nucleic acid-introducing ability", "setting": "[3]; class of fluorescent count per 1 mg of protein per 1 second, highest of peptide 1.25, 2.5, 5 μM, plasmid 1 μg/mL", "result": "4+ (10,000,000 or more)"}, {"measurement": "gene-introducing activity after storing the complex at 4° C. for 1 week, relative to freshly prepared complex", "setting": "[4]", "result": "substantially equivalent"}]}, {"substance": "SEQ ID NO:25: comparative peptide, same amino acid composition as SEQ ID NO:1 but an utterly random amino acid sequence (TIRYRPSHQIRLRAVLHLWIRYRPSHQIRLRAVLHWS; synthetic peptide using an automatic peptide synthesizer) [reference compound]", "values": [{"measurement": "α-helix structure in CD spectrum in the presence of SDS", "setting": "[2]; 5 mM SDS, 10 mM phosphate buffer pH 7, 50 mM NaCl, 35° C.", "result": "no α-helix structure is found"}, {"measurement": "binding to flow cell 1 (phosphatidyl choline)", "setting": "[5]", "result": "no binding"}, {"measurement": "binding to flow cell 2 (50% phosphatidyl serine, 50% phosphatidyl choline)", "setting": "[6]", "result": "no binding"}, {"measurement": "ability of introducing the nucleic acid into a cell", "setting": "[3]; procedure of Example 9, luciferase-expressing plasmid", "result": "neither the nucleic acid-introducing ability"}]}]}
